Assay results reported in US20150315241A1, “Antibiotic Peptides” (priority 2007, published 2015).
In brackets after ≈: the same amount, converted by molar mass. Where two headings read alike, the source gives them in different places. Where a SMILES comes first, the peptide text is derived from it. Where no end group is shown, it is not given here. [ ]: non-standard residue; d: D form. The star is where a group is joined. Guan = guanidino group added at N-terminus (guanidation), N=C(N)*; NMeL = CN[C@@H](CC(C)C)C(=O)O; Agp = N=C(N)NC[C@H](N)C(=O)O; Orn = NCCC[C@H](N)C(=O)O; OPr = CCCO*

Experiments:
E. coli BL 21 AI = experiment: Growth inhibition assay (MIC); format: cell-based, Escherichia coli; details: 1% TSB, 37° C., 20 hrs
Method in brief: (§1)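 Two-fold serial dilution in 1% TSB, final 125 μg/mL to 60 ng/mL; inoculum 5×10^6 CFU/mL (before 1:1 mixing with peptide). Incubated 20 hrs at 37° C., growth read as absorbance at 595 nm, in triplicate with sterile water as negative control.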

M. luteus ATCC 10240 = format: cell-based, Micrococcus luteus; details: 1% TSB, 37° C., 20 hrs
Method in brief: as §1

B. subtilis 347 = format: cell-based, Bactillus subtillis; details: 1% TSB, 37° C., 20 hrs
Protocol: (§2) The minimal inhibition concentrations (MIC) of the apidaecin-derived peptides and peptide-derivatives were determined by a growth inhibition assay using a serial peptide dilution in sterilized round-bottom 96-well plates (polystyrene, U-bottom, Greiner Bio-One GmbH) with a final volume of 100 μL per well. The bacteria, e.g., E. coli BL21 A1, were grown in nutrient broth (NB, Carl Roth GmbH+Co. KG, Karlsruhe, Germany) at 37° C. over night. To each well of the 96-well plate, 50 μL of the overnight culture adjusted to 5×10^6 CFU/mL in 1% TSB were added. Lyophilized peptides and peptidomimetics were dissolved in 1% TSB (tryptic soy broth) or water to give a final concentration of 250 μg/mL. Fifty μL of the peptide or peptidomimetics solution were added to the first well of a row on the plate and mixed. Fifty μL of the first well containing the peptide solution were transferred to the second well, mixed and again 50 μL transferred to the next well and so on. Thereby, a two-fold dilution series was obtained starting at 250 μg/mL in the first well down to 120 ng/mL in the 12th well of a row giving a final peptide or peptidomimetics concentration from 125 μg/mL (well 1) to 60 ng/mL (well 12). Plates were incubated at 37° C. for 20 hrs. The absorbance was measured at 595 nm using a TECAN micro plate spectrophotometer (Tecan, Germany). All peptides and peptidomimetics were measured in triplicates. Sterilized water was used as a negative control.
(§3) The bacteria strains were tested: • Eschericha coli 1103, 10233, BL 21 AI, DC 2, • Klebsiella pneumoniae 681, • Micrococcus luteus ATCC 10240, • Mycobacterium vaccae • Bactillus subtillis 347.

E. coli 1103 = format: cell-based, Escherichia coli; details: 1% TSB, 37° C., 20 hrs
Protocol: as §2, §3

K. pneumonia 681 = format: cell-based, Klebsiella pneumoniae; details: 1% TSB, 37° C., 20 hrs
Protocol: as §2, §3

E. coli 45849 = experiment: Growth inhibition assay (MIC); format: cell-based, Escherichia coli; details: multidrug resistant strain; 1% TSB, 37° C., 20 hrs
Protocol: as §2
(§4) The following multidrug resistant bacteria strains were tested: • Eschericha coli 45849 and D31, • Klebsiella pneumoniae 123132 and K6, • Salmonella typhi S5 and Salmonella enterica subsp. enterica serovar Typhimurium (ATCC 700408), • Rhizobium radiobacter (ATCC 15955 deposited as Agrobacterium tumefaciens).

S. typhi S5 = format: cell-based, Salmonella typhi
Protocol: as §2, §4

E. coli D31 = format: cell-based, Escherichia coli
Protocol: as §2, §4

K. Pneumonia 123132 = experiment: Growth inhibition assay (MIC); format: cell-based, Klebsiella pneumoniae; details: multidrug resistant strain; 1% TSB, 37° C., 20 hrs
Protocol: as §2, §4

[1] = test system: K. Pneumonia K6, ATCC 700603; experiment: Growth inhibition assay (MIC); format: cell-based, Klebsiella pneumoniae; details: multidrug resistant strain; 1% TSB, 37° C., 20 hrs
Protocol: as §2, §4

[2] = test system: S. enterica subsp. Enterica serovar. typhi G10215 ATCC 700408; format: cell-based, Salmonella enterica
Protocol: as §2, §4

[3] = test system: R. radiobatter ATCC 15955; experiment: Growth inhibition assay (MIC); format: cell-based, Rhizobium radiobacter; details: multidrug resistant strain; 1% TSB, 37° C., 20 hrs
Protocol: as §2, §4

[4] = multidrug resistant strain, 1% TSB, 37° C., 20 hrs

Compound | MIC E. coli BL 21 AI (E. coli BL 21 AI) [mg/L] | MIC M. luteus ATCC 10240 (M. luteus ATCC 10240) [mg/L] | MIC B. subtilis 347 (B. subtilis 347) [mg/L] | MIC E. coli 1103 (E. coli 1103) [mg/L] | MIC K. pneumonia 681 (K. pneumonia 681) [mg/L] | MIC E. coli 45849 (E. coli 45849) [mg/L] | MIC K. Pneumonia 123132 (K. Pneumonia 123132) [mg/L] | MIC K. Pneumonia K6, ATCC 700603 [1] [mg/L] | also measured
86 ([Orn]NNRPVYIPRPRPPHPRPIRV-NH2) [compound 86] | 3.91 | 0.98 | 62.5 |  |  |  |  |  | 
146 (Guan-[Orn]NNRPVYIPRPRPPHP[Agp]L-NH2) [compound 146] | 32 | 4 | 125 | 64 | 32 |  |  |  | 
147 (Guan-[Orn]NNRPVYIPRPRPPHPRL-OPr) [compound 147] | 4 | 16 | 64 | 16 | 8 |  |  |  | 
159 (GNNRPVYIPRPRPPHPRL) [compound 159] |  |  |  |  |  | 1 | 4 | 4 | MIC S. typhi S5 (S. typhi S5; [4]): 0.25 mg/L; MIC E. coli D31 (E. coli D31; [4]): 1 mg/L; MIC S. enterica subsp. Enterica serovar. typhi G10215 ATCC 700408 [2, 4]: 0.25 mg/L
CC[C@H](C)[C@H](NC(=O)[C@H](Cc1ccc(O)cc1)NC(=O)[C@@H](NC(=O)[C@@H]1CCCN1C(=O)[C@H](CCCNC(=N)N)NC(=O)[C@H](CC(N)=O)NC(=O)[C@H](CC(N)=O)NC(=O)CN)C(C)C)C(=O)N1CCC[C@H]1C(=O)N[C@@H](CCCNC(=N)N)C(=O)N1CCC[C@H]1C(=O)N[C@@H](CCCNC(=N)N)C(=O)N1CCC[C@H]1C(=O)N1CCC[C@H]1C(=O)N[C@@H](Cc1c[nH]cn1)C(=O)N1CCC[C@H]1C(=O)N[C@@H](CCCNC(=N)N)C(=O)N(C)[C@@H](CC(C)C)C(N)=O [compound 34] (H-GNNRPVYIPRPRPPHPR[NMeL]-NH2) |  |  |  |  |  | 4 (≈ 1.86 µM) | 32 (≈ 14.9 µM) | 32 (≈ 14.9 µM) | MIC S. typhi S5 (S. typhi S5; S5, 20 h): 8 mg/L (≈ 3.72 µM); MIC E. coli D31 (E. coli D31; D31, 20 h): 8 mg/L (≈ 3.72 µM); MIC S. enterica subsp. Enterica serovar. typhi G10215 ATCC 700408 ([2]; ATCC 700408, 20 h): 4 to 8 mg/L; MIC R. radiobatter ATCC 15955 [3]: 1.3 mg/L (≈ 0.605 µM)
